Measurements from the supplement of paper PMC10307832.

Columns and labels:
Assay in all cases: relative viability (nuclei count vs DMSO), 5 days (fraction); higher = more cells survive
[1] = compound: CCCS(=O)(=O)Nc1ccc(F)c(C(=O)c2c[nH]c3ncc(-c4ccc(Cl)cc4)cc23)c1F [Vemurafenib] + C[C@@H](Oc1cc(-c2cnn(C3CCNCC3)c2)cnc1N)c1c(Cl)ccc(F)c1Cl [Crizotinib] (partner 1 µM)
Method in brief: (§1)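 Relative viability divides the nuclei count in treated wells by that in vehicle wells. Lung cancer cell lines were seeded in 1536-well plates, dosed by pin tool the next day, and fixed and stained after 5 days in one step with final 0.05% Triton X-100, 1% formaldehyde and 1 ug/ml Hoechst. Dosing was a single drug or a fixed anchor-drug dose plus five library-drug doses (not always all listed) in √10 steps, and values are medians of duplicate plates imaged at 4×.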

[2] = compound: Cc1nc(NC(=O)N2CCC[C@H]2C(N)=O)sc1-c1ccnc(C(C)(C)C(F)(F)F)c1 [Alpelisib] + Cc1cc(Nc2cc(N3CCN(C)CC3)nc(Sc3ccc(NC(=O)C4CC4)cc3)n2)n[nH]1 [Tozasertib] (partner 0.1 µM)
Method in brief: as §1

[3] = compound: CCCS(=O)(=O)Nc1ccc(F)c(C(=O)c2c[nH]c3ncc(-c4ccc(Cl)cc4)cc23)c1F [Vemurafenib] + Nc1ncn([C@H]2C[C@H](O)[C@@H](CO)O2)c(=O)n1 [Decitabine] (partner 2 µM)
Method in brief: as §1

[4] = compound: CCCS(=O)(=O)Nc1ccc(F)c(C(=O)c2c[nH]c3ncc(-c4ccc(Cl)cc4)cc23)c1F [Vemurafenib] + COc1cccc2cc(-c3nc([C@H]4CC[C@H](C(=O)O)CC4)n4ncnc(N)c34)[nH]c12 [OSI-027] (partner 0.5 µM)
Method in brief: as §1

Cell Line: NCI-H1437
- relative viability ([1]; first compound 0.03162 µM): 0.801
- relative viability ([1]; first compound 0.1 µM): 0.937
- relative viability ([1]; first compound 0.3162 µM): 0.895
- relative viability ([1]; first compound 1 µM): 0.906
- relative viability ([2]; first compound 0.04 µM): 0.41
- relative viability ([2]; first compound 0.1265 µM): 0.394
- relative viability ([2]; first compound 0.4 µM): 0.417
- relative viability ([2]; first compound 1.265 µM): 0.336
- relative viability ([2]; first compound 4 µM): 0.306
- relative viability ([3]; first compound 0.03162 µM): 0.523
- relative viability ([3]; first compound 0.1 µM): 0.565
- relative viability ([3]; first compound 0.3162 µM): 0.531
- relative viability ([3]; first compound 1 µM): 0.579
- relative viability ([4]; first compound 0.03162 µM): 0.857
- relative viability ([4]; first compound 0.1 µM): 0.85
- relative viability ([4]; first compound 0.3162 µM): 0.855
- relative viability ([4]; first compound 1 µM): 0.875

Cell Line: NCI-H1650
- relative viability ([1]; first compound 0.03162 µM): 0.922
- relative viability ([1]; first compound 0.3162 µM): 1.08
- relative viability ([1]; first compound 1 µM): 1.01
- relative viability ([2]; first compound 0.04 µM): 0.464
- relative viability ([2]; first compound 0.1265 µM): 0.287
- relative viability ([2]; first compound 0.4 µM): 0.375
- relative viability ([2]; first compound 1.265 µM): 0.332
- relative viability ([2]; first compound 4 µM): 0.36
- relative viability ([3]; first compound 0.03162 µM): 0.348
- relative viability ([3]; first compound 0.1 µM): 0.499
- relative viability ([3]; first compound 0.3162 µM): 0.413
- relative viability ([3]; first compound 1 µM): 0.461
- relative viability ([4]; first compound 0.1 µM): 0.448
- relative viability ([4]; first compound 1 µM): 0.537

Cell Line: NCI-H1651
- relative viability ([1]; first compound 0.03162 µM): 0.875
- relative viability ([1]; first compound 0.1 µM): 0.869
- relative viability ([1]; first compound 0.3162 µM): 0.806
- relative viability ([1]; first compound 1 µM): 0.795
- relative viability ([2]; first compound 0.04 µM): 0.636
- relative viability ([2]; first compound 0.1265 µM): 0.651
- relative viability ([2]; first compound 0.4 µM): 0.708
- relative viability ([2]; first compound 1.265 µM): 0.653
- relative viability ([2]; first compound 4 µM): 0.607
- relative viability ([3]; first compound 0.03162 µM): 0.532
- relative viability ([3]; first compound 0.1 µM): 0.633
- relative viability ([3]; first compound 0.3162 µM): 0.494
- relative viability ([3]; first compound 1 µM): 0.621
- relative viability ([4]; first compound 0.03162 µM): 0.733
- relative viability ([4]; first compound 0.1 µM): 0.725
- relative viability ([4]; first compound 0.3162 µM): 0.698
- relative viability ([4]; first compound 1 µM): 0.829

Cell Line: NCI-H1666
- relative viability ([1]; first compound 0.03162 µM): 1.02
- relative viability ([1]; first compound 0.3162 µM): 1.24
- relative viability ([1]; first compound 1 µM): 1.05
- relative viability ([2]; first compound 0.04 µM): 0.668
- relative viability ([2]; first compound 0.1265 µM): 0.63
- relative viability ([2]; first compound 0.4 µM): 0.636
- relative viability ([2]; first compound 1.265 µM): 0.519
- relative viability ([2]; first compound 4 µM): 0.528
- relative viability ([3]; first compound 0.03162 µM): 0.612
- relative viability ([3]; first compound 0.1 µM): 0.724
- relative viability ([3]; first compound 0.3162 µM): 0.686
- relative viability ([3]; first compound 1 µM): 0.764
- relative viability ([4]; first compound 0.03162 µM): 0.845
- relative viability ([4]; first compound 0.1 µM): 0.802
- relative viability ([4]; first compound 0.3162 µM): 0.98
- relative viability ([4]; first compound 1 µM): 0.929

Cell Line: NCI-H1734
- relative viability ([1]; first compound 0.03162 µM): 0.665
- relative viability ([1]; first compound 0.1 µM): 0.684
- relative viability ([1]; first compound 0.3162 µM): 0.579
- relative viability ([1]; first compound 1 µM): 0.516
- relative viability ([2]; first compound 0.04 µM): 0.289
- relative viability ([2]; first compound 0.4 µM): 0.299
- relative viability ([2]; first compound 1.265 µM): 0.224
- relative viability ([2]; first compound 4 µM): 0.205
- relative viability ([3]; first compound 0.03162 µM): 0.569
- relative viability ([3]; first compound 0.1 µM): 0.486
- relative viability ([3]; first compound 0.3162 µM): 0.506
- relative viability ([3]; first compound 1 µM): 0.506
- relative viability ([4]; first compound 0.03162 µM): 0.583
- relative viability ([4]; first compound 0.1 µM): 0.568
- relative viability ([4]; first compound 0.3162 µM): 0.49
- relative viability ([4]; first compound 1 µM): 0.507

Cell Line: NCI-H1755
- relative viability ([1]; first compound 0.03162 µM): 0.798
- relative viability ([1]; first compound 0.1 µM): 0.842
- relative viability ([1]; first compound 0.3162 µM): 0.844
- relative viability ([1]; first compound 1 µM): 0.79
- relative viability ([2]; first compound 0.04 µM): 0.615
- relative viability ([2]; first compound 0.1265 µM): 0.508
- relative viability ([2]; first compound 0.4 µM): 0.629
- relative viability ([2]; first compound 1.265 µM): 0.438
- relative viability ([2]; first compound 4 µM): 0.434
- relative viability ([3]; first compound 0.03162 µM): 0.705
- relative viability ([3]; first compound 0.1 µM): 0.616
- relative viability ([3]; first compound 0.3162 µM): 0.73
- relative viability ([3]; first compound 1 µM): 0.711
- relative viability ([4]; first compound 0.03162 µM): 0.696
- relative viability ([4]; first compound 0.1 µM): 0.687
- relative viability ([4]; first compound 0.3162 µM): 0.586
- relative viability ([4]; first compound 1 µM): 0.632

Cell Line: NCI-H1915
- relative viability ([1]; first compound 0.03162 µM): 0.874
- relative viability ([1]; first compound 0.1 µM): 0.908
- relative viability ([1]; first compound 0.3162 µM): 0.853
- relative viability ([1]; first compound 1 µM): 0.769
- relative viability ([2]; first compound 0.04 µM): 0.421
- relative viability ([2]; first compound 0.1265 µM): 0.381
- relative viability ([2]; first compound 0.4 µM): 0.491
- relative viability ([2]; first compound 1.265 µM): 0.387
- relative viability ([2]; first compound 4 µM): 0.392
- relative viability ([3]; first compound 0.03162 µM): 0.244
- relative viability ([3]; first compound 0.1 µM): 0.253
- relative viability ([3]; first compound 0.3162 µM): 0.26
- relative viability ([3]; first compound 1 µM): 0.244
- relative viability ([4]; first compound 0.03162 µM): 0.585
- relative viability ([4]; first compound 0.1 µM): 0.639
- relative viability ([4]; first compound 0.3162 µM): 0.471
- relative viability ([4]; first compound 1 µM): 0.533

Cell Line: NCI-H1944
- relative viability ([1]; first compound 0.03162 µM): 1.03
- relative viability ([1]; first compound 0.1 µM): 0.816
- relative viability ([1]; first compound 0.3162 µM): 1.09
- relative viability ([1]; first compound 1 µM): 1.06
- relative viability ([2]; first compound 0.04 µM): 0.251
- relative viability ([2]; first compound 0.1265 µM): 0.226
- relative viability ([2]; first compound 0.4 µM): 0.267
- relative viability ([2]; first compound 1.265 µM): 0.218
- relative viability ([2]; first compound 4 µM): 0.171
- relative viability ([3]; first compound 0.03162 µM): 0.488
- relative viability ([3]; first compound 0.3162 µM): 0.45
- relative viability ([3]; first compound 1 µM): 0.456
- relative viability ([4]; first compound 0.03162 µM): 0.395
- relative viability ([4]; first compound 0.1 µM): 0.285
- relative viability ([4]; first compound 0.3162 µM): 0.336
- relative viability ([4]; first compound 1 µM): 0.352
